Assay results from US20160250121A1, “USE OF MONO ORNITHINE KETOGLUTARATE (MOKG)” (L'OREAL, priority 2013, published 2016).

System: Hair follicles
Experiment: Activity of actives on hair follicle growth (cultured scalp hair follicles, elongation by image analysis)
Format: cell-based
Settings: for Growth: average elongation as percentage of control group (=100), 6 days of cultivation (5 of treatment)
Method: Hair follicles were taken from a single donor's scalp sample and transferred in sterile 24 well plates to be cultivated by using a modified Williams' Medium E. Cultivation took place for six days, while the experimental treatment of the follicles started 24 hours from the beginning of the cultivation. Hair follicles were selected for the experiments after 18 h of cultivation. Only those follicles showing a good vital stage and a growth of not less than 0.2 mm were considered suitable to be maintained in culture. All experimental groups and the control were prepared comprising 12 to 18 follicles, plated in 24-well plates at a density of 3 hair follicles/well. The hair follicles showing evident signs of sufferance during the culture for reasons not dependent on the experimental treatment were excluded from the final analysis.
The treatments consisted of mOKG concentrations varying from 0.001 to 0.1% b.w.
The growth performances observed in the treated hair follicles were compared to a control group cultured in the same culture medium free from OMG.
The experiment was terminated after 6 days of cultivation (5 of treatment). The growth of the hair follicles was studied by microphotography and subsequently determined by image analysis.
The average elongation detected in the experimental groups was expressed as percentage value of the growth performed by the control group. The statistical significance of the effects produced by the treatments was evaluated by means of analysis of variance (ANOVA) according the Duncan's method.

[1] = Conc. 0.001% b.w. in culture medium
[2] = Conc. 0.01% b.w. in culture medium
[3] = Conc. 0.1% b.w. in culture medium

Compound | Growth [1] | Growth [2] | Growth [3] | Factor between effective concentrations (mOKG 0.001% b.w. vs OKG 0.1% b.w.) (mOKG significantly effective at 0.001% b.w. as OKG at 0.1% b.w.)
O=C(O)CCC(=O)C(=O)O [Alpha-ketoglutarate] | 101% | 103% | 104% | 
NCCC[C@H](N)C(=O)O.O=C(O)CCC(=O)C(=O)O [Mono Ornithine Ketoglutarate, Mono-Ornithine (alpha-) ketoglutarate] | 112% | 120% | 122% | 100
Cl.NCCC[C@H](N)C(=O)O [Ornithine hydrochloride] | 100% | 102% | 106% | 
Di Ornithine Ketoglutarate | 101% | 107% | 116% | 
